What was measured:
[1] = physchem; format: physicochemical
[2] = biological target: human carbonic anhydrase II (hCAII) (Homo sapiens, UniProt P00918); experiment: hCAII assay; format: biochemical
[3] = physchem; format: physicochemical; remark: listed apart in the source

pKa [1]: < 1.5
IC50 [2]: > 1000 µM
logP [3]: < -2
logD ([3]; pH 7.4): < -2
SMILES: O=C(O)c1ccccn1 [Compound 1, picolinic acid]

From article PMC6289299 (Inorganic chemistry, 2018)
